{"source": "patent US11407711B2", "about": "“Benzamide compound and use thereof” (METISA BIOTECHNOLOGY CO., LTD., priority 2018, dated 2022)", "system": "Plutella xylostella", "experiment": "Insecticidal activity against Plutella xylostella (Airbrush spray on cabbage leaf discs)", "assay_type": "in vivo", "details": "for Fatality rate (%, 3 d after administration) 5 mg/L: Table 72, 5 mg/L; for Fatality rate (%, 3 d after administration) 0.5 mg/L: Table 73, 0.5 mg/L", "description": "The compound to be tested was dissolved by a mixed solvent of acetone/methanol (1:1), and then diluted by water containing 0.1% (wt) Tween 80 to the required concentration.\nAn Airbrush spray method was adopted for the determination of the activity, with armyworm, Plutella xylostella and Chilo suppressalis as targets.\nDetermination method: cabbage blades were punched into 2 cm (diameter) leaf discs by a puncher; with the pressure of Airbrush spray being 10 psi (about 0.7 kg/cm^2), both sides of each leaf disc were sprayed with the amount of 0.5 ml. After dried in the shade, each leaf disc was inoculated with 10 3rd-instar larvaes, 3 repeats for each leaf disc. And then, the treated leaf discs were put into an observation room (25° C., relative humidity: 60-70%) for cultivation; the number of the survivals was surveyed 1 d, 2 d and 3 d after administration, and then the death rate was calculated.", "key": {"[1]": {"details": "Plutella xylostella, foliar, 72 h, Table 71, 10 mg/L, 3 d after administration, read-out: Fatality rate (%, 3 d after administration) 10 mg/L"}}, "note": "Like-named read-outs stand apart in the source and are kept apart here."}
{"smiles": "COCN(C(=O)c1ccccc1)c1cccc(C(=O)N(C)c2c(C)cc(C(F)(C(F)(F)F)C(F)(F)F)cc2C)c1", "note": "[CK1, reference compound]", "values": [{"measurement": "pest or weed control at 10 µg/mL", "setting": "[1]", "result": 0, "unit": "%"}]}
{"smiles": "COCN(C(=O)c1ccccc1)c1cccc(C(=O)Nc2c(C)cc(C(F)(C(F)(F)F)C(F)(F)F)cc2C)c1", "note": "[CK2, reference compound]", "values": [{"measurement": "pest or weed control at 10 µg/mL", "setting": "[1]", "result": 0, "unit": "%"}]}
{"smiles": "Cc1cc(C(F)(C(F)(F)F)C(F)(F)F)cc(C)c1NC(=O)c1cccc(N(C#N)C(=O)c2ccccc2)c1", "note": "[CK3, reference compound]", "values": [{"measurement": "pest or weed control at 10 µg/mL", "setting": "[1]", "result": 0, "unit": "%"}]}
{"smiles": "NC(=O)CCN(C(=O)c1ccccc1)c1cccc(C(=O)N(CCC(N)=O)c2c(Br)cc(C(F)(C(F)(F)F)C(F)(F)F)cc2C(F)(F)F)c1F", "note": "[CK4, reference compound]", "values": [{"measurement": "pest or weed control at 10 µg/mL", "setting": "Plutella xylostella, foliar, 72 h, read-out: Fatality rate (%, 3 d after administration) 10 mg/L, Table 71, 10 mg/L, 3 d after administration", "result": 0, "unit": "%"}]}
{"smiles": "NC(=O)CCN(C(=O)c1ccccc1)c1cccc(C(=O)N(CCC(N)=O)c2c(Br)cc(C(F)(C(F)(F)F)C(F)(F)F)cc2C(F)(F)F)c1F", "note": "[CK5, reference compound]", "values": [{"measurement": "pest or weed control at 1 µg/mL", "setting": "Plutella xylostella, foliar, 72 h, read-out: Fatality rate (%, 3 d after administration) 1 mg/L, Table 72, 1 mg/L, 3 d after administration", "result": 0, "unit": "%"}, {"measurement": "Fatality rate (%, 3 d after administration) 5 mg/L", "setting": "3 d after administration", "result": 63.5, "unit": "%"}]}
{"smiles": "NC(=O)CCN(C(=O)c1ccccc1)c1cccc(C(=O)N(CCC(N)=O)c2c(Br)cc(C(F)(C(F)(F)F)C(F)(F)F)cc2C(F)(F)F)c1F", "note": "[CK6, reference compound]", "values": [{"measurement": "pest or weed control at 1 µg/mL", "setting": "Plutella xylostella, foliar, 72 h, read-out: Fatality rate (%, 3 d after administration) 1 mg/L, Table 73, 1 mg/L, 3 d after administration", "result": 68, "unit": "%"}, {"measurement": "Fatality rate (%, 3 d after administration) 0.5 mg/L", "setting": "3 d after administration", "result": 10, "unit": "%"}]}
{"smiles": "NC(=O)CCN(C(=O)c1ccccc1)c1cccc(C(=O)N(CCC(N)=O)c2c(Br)cc(C(F)(C(F)(F)F)C(F)(F)F)cc2C(F)(F)F)c1F", "note": "[CK7, reference compound]", "values": [{"measurement": "pest or weed control at 0.5 µg/mL", "setting": "Plutella xylostella, foliar, 72 h, read-out: Fatality rate (%, 3 d after administration) 0.5 mg/L, Table 74, 0.5 mg/L, 3 d after administration", "result": 70, "unit": "%"}, {"measurement": "Fatality rate (%, 3 d after administration) 0.05 mg/L", "setting": "Table 74, 0.05 mg/L, 3 d after administration", "result": 0, "unit": "%"}]}
{"smiles": "NC(=O)CCN(C(=O)c1ccccc1)c1cccc(C(=O)N(CCC(N)=O)c2c(Br)cc(C(F)(C(F)(F)F)C(F)(F)F)cc2C(F)(F)F)c1F", "note": "[CK8, reference compound]", "values": [{"measurement": "Fatality rate (%, 3 d after administration) 1 mg/L", "setting": "Table 72, 1 mg/L, 3 d after administration", "result": 0, "unit": "%"}, {"measurement": "Fatality rate (%, 3 d after administration) 5 mg/L", "setting": "3 d after administration", "result": 65.8, "unit": "%"}]}
{"smiles": "NC(=O)CCN(C(=O)c1ccccc1)c1cccc(C(=O)N(CCC(N)=O)c2c(Br)cc(C(F)(C(F)(F)F)C(F)(F)F)cc2C(F)(F)F)c1F", "note": "[CK9, reference compound]", "values": [{"measurement": "Fatality rate (%, 3 d after administration) 0.5 mg/L", "setting": "3 d after administration", "result": 0, "unit": "%"}, {"measurement": "Fatality rate (%, 3 d after administration) 1 mg/L", "setting": "Table 73, 1 mg/L, 3 d after administration", "result": 55, "unit": "%"}]}
